Source: patent US12655116B2, “Substituted isophthalic acid diamides” (Bayer Aktiengesellschaft, priority 2020, dated 2026)

Key:
DIGSA [1] = test: Post-emergence herbicidal action against DIGSA; assay type: in vivo, Digitaria sanguinalis; conditions: Digitaria sanguinalis, 504 h
Outline: (§1)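 A WP or EC formulation diluted in water with 0.2% wetting agent was sprayed at 600 to 800 l/ha onto one-leaf-stage plants grown in sandy loam. About 3 weeks later, action was rated visually in percent, 100% being dead plants.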

AVEFA = test: Pre-emergence herbicidal action against AVEFA; assay type: in vivo, Avena fatua; conditions: Avena fatua, 504 h; 80 g/ha, pre-emergence
Outline: (§2)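 Greenhouse pots of sandy loam held seeds covered with soil, onto which the compound was applied before emergence. An aqueous suspension or emulsion of WP or EC was used at 600 to 800 l/ha with 0.2% wetting agent. Percent damage was judged visually at 3 weeks.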

PHBPU [2] = test: Post-emergence herbicidal action against PHBPU; assay type: in vivo, Pharbitis purpurea; conditions: Ipomoea purpurea, 504 h; for pest or weed control at 20 g/ha: dosage 20 g/ha
Outline: as §1

VERPE [3] = test: Pre-emergence herbicidal action against VERPE; assay type: in vivo, Veronica persica; conditions: Veronica persica, 504 h, dosage 80 g/ha
Outline: as §2

ECHCG [4] = test: Pre-emergence herbicidal action against ECHCG; assay type: in vivo, Echinochloa crus-galli; conditions: Echinochloa crus-galli, 504 h, 80 g/ha
Outline: as §2

PHBPU [5] = test: Pre-emergence herbicidal action against PHBPU; assay type: in vivo, Pharbitis purpurea; conditions: Ipomoea purpurea, 504 h, dosage 80 g/ha
Outline: as §2

ALOMY [6] = test: Post-emergence herbicidal action against ALOMY; assay type: in vivo, Alopecurus myosuroides; conditions: Alopecurus myosuroides, 504 h, dosage 20 g/ha, visual assessment about 3 weeks after treatment vs untreated controls
Outline: as §1

DIGSA [7] = test: Pre-emergence herbicidal action against DIGSA; assay type: in vivo, Digitaria sanguinalis; conditions: Digitaria sanguinalis, 504 h
Outline: as §2

AMARE [8] = test: Post-emergence herbicidal action against AMARE; assay type: in vivo, Amaranthus retroflexus; conditions: Amaranthus retroflexus, 504 h, 20 g/ha, visual assessment about 3 weeks after treatment, 100% = plants have died, 0% = like control plants
Outline: as §1

SETVI [9] = test: Pre-emergence herbicidal action against SETVI; assay type: in vivo, Setaria viridis; conditions: Setaria viridis, 504 h; for pest or weed control at 20 g/ha: dosage 20 g/ha; for pest or weed control at 80 g/ha: dosage 80 g/ha
Outline: as §2

ALOMY [10] = test: Pre-emergence herbicidal action against ALOMY; assay type: in vivo, Alopecurus myosuroides; conditions: Alopecurus myosuroides, 504 h, pre-emergence; for pest or weed control at 80 g/ha: scored visually after 3 weeks vs untreated controls (100% = plants have died, 0% = like control plants)
Outline: as §2

AMARE [11] = test: Pre-emergence herbicidal action against AMARE; assay type: in vivo, Amaranthus retroflexus; conditions: Amaranthus retroflexus, 504 h, scored visually after 3 weeks vs untreated controls, 100% = plants have died, 0% = like control plants
Outline: as §2

MATIN [12] = test: Pre-emergence herbicidal action against MATIN; assay type: in vivo, Matricaria inodora; conditions: Tripleurospermum inodorum, 504 h; for pest or weed control at 20 g/ha: dosage 20 g/ha; for pest or weed control at 80 g/ha: dosage 80 g/ha
Outline: as §2

ABUTH [13] = test: Post-emergence herbicidal action against ABUTH; assay type: in vivo, Abutilon theophrasti; conditions: Abutilon theophrasti, 504 h, visual assessment about 3 weeks after treatment vs untreated controls; for pest or weed control at 5 g/ha: dosage 5 g/ha; for pest or weed control at 20 g/ha: dosage 20 g/ha
Outline: as §1

ECHCG [14] = test: Post-emergence herbicidal action against ECHCG; assay type: in vivo, Echinochloa crus-galli; conditions: Echinochloa crus-galli, 504 h; for pest or weed control at 5 g/ha: dosage 5 g/ha; for pest or weed control at 20 g/ha: dosage 20 g/ha
Outline: as §1

VERPE [15] = test: Post-emergence herbicidal action against VERPE; assay type: in vivo, Veronica persica; conditions: Veronica persica, 504 h, 20 g/ha
Outline: as §1

POLCO = test: Pre-emergence herbicidal action against POLCO; assay type: in vivo, Polygonum convolvulus; conditions: Fallopia convolvulus, 504 h; for pest or weed control at 80 g/ha: dosage 80 g/ha
Outline: as §2

MATIN [16] = test: Post-emergence herbicidal action against MATIN; assay type: in vivo, Matricaria inodora; conditions: Tripleurospermum inodorum, 504 h, dosage 20 g/ha
Outline: as §1

ABUTH [17] = test: Pre-emergence herbicidal action against ABUTH; assay type: in vivo, Abutilon theophrasti; conditions: Abutilon theophrasti, 504 h; for pest or weed control at 80 g/ha: scored visually after 3 weeks vs untreated controls (100% = plants have died, 0% = like control plants); for pest or weed control at 20 g/ha: dosage 20 g/ha, scored visually after 3 weeks vs untreated controls, 100% = plants have died, 0% = like control plants, read-out: Pre-emergence action against ABUTH (herbicidal activity in percent)
Outline: as §2

SETVI [18] = test: Post-emergence herbicidal action against SETVI; assay type: in vivo, Setaria viridis; conditions: Setaria viridis, 504 h; for pest or weed control at 20 g/ha: dosage 20 g/ha
Outline: as §1

LOLRI = test: Pre-emergence herbicidal action against LOLRI; assay type: in vivo, Lolium rigidum; conditions: Lolium rigidum, 504 h, 80 g/ha
Outline: as §2

VIOTR [19] = test: Pre-emergence herbicidal action against VIOTR; assay type: in vivo, Viola tricolor; conditions: Viola tricolor, 504 h; for pest or weed control at 80 g/ha: dosage 80 g/ha
Outline: as §2

VIOTR [20] = test: Post-emergence herbicidal action against VIOTR; assay type: in vivo, Viola tricolor; conditions: Viola tricolor, 504 h, 20 g/ha
Outline: as §1

Row | Compound | pest or weed control at 80 g/ha (AVEFA) [%] | pest or weed control at 20 g/ha (PHBPU [2]) [%] | pest or weed control at 80 g/ha (VERPE [3]) [%] | pest or weed control at 80 g/ha (ECHCG [4]) [%] | pest or weed control at 80 g/ha (PHBPU [5]) [%] | pest or weed control at 20 g/ha (ALOMY [6]) [%] | pest or weed control at 20 g/ha (AMARE [8]) [%] | pest or weed control at 20 g/ha (SETVI [9]) [%] | pest or weed control at 80 g/ha (SETVI [9]) [%] | pest or weed control at 80 g/ha (ALOMY [10]) [%] | pest or weed control at 20 g/ha (AMARE [11]) [%] | pest or weed control at 80 g/ha (AMARE [11]) [%] | pest or weed control at 20 g/ha (MATIN [12]) [%] | pest or weed control at 80 g/ha (MATIN [12]) [%] | pest or weed control at 5 g/ha (ABUTH [13]) [%] | pest or weed control at 20 g/ha (ABUTH [13]) [%] | pest or weed control at 5 g/ha (ECHCG [14]) [%] | pest or weed control at 20 g/ha (ECHCG [14]) [%] | pest or weed control at 20 g/ha (VERPE [15]) [%] | pest or weed control at 80 g/ha (POLCO) [%] | further results
1 | CC(C)NC(=O)c1c(C(F)F)ccc(C(=O)Nc2nnnn2C)c1Cl [Example 1-155] | 90 | 90 | 100 | 100 | 100 | 90 | 90 | 80 | 100 | 90 | 100 | 100 | 100 | 100 | 80 | 90 | 90 | 90 | 80 | 90 | pest or weed control at 5 g/ha (DIGSA [1]; 5 g/ha): 90%; pest or weed control at 20 g/ha (DIGSA [1]; 20 g/ha): 90%; pest or weed control at 5 g/ha (PHBPU [2]; dosage 5 g/ha): 90%; pest or weed control at 20 g/ha (DIGSA [7]; dosage 20 g/ha): 100%; pest or weed control at 80 g/ha (DIGSA [7]; dosage 80 g/ha): 100%; pest or weed control at 20 g/ha (MATIN [16]): 80%; pest or weed control at 80 g/ha (ABUTH [17]): 100%; pest or weed control at 20 g/ha (ABUTH [17]): 100%; pest or weed control at 20 g/ha (SETVI [18]): 80%; pest or weed control at 80 g/ha (LOLRI): 90%; pest or weed control at 80 g/ha (VIOTR [19]): 100%
2 | CCNC(=O)c1c(C(F)(F)F)ccc(C(=O)Nc2nnnn2C)c1CC [Example 1-272] | 90 | 90 | 90 | 100 | 80 | 90 | 100 | 80 | 100 | 100 | 100 | 100 | 90 | 100 | 80 | 90 | 80 | 90 | 80 | 90 | pest or weed control at 20 g/ha (VIOTR [20]): 90%; pest or weed control at 20 g/ha (ALOMY [10]; 20 g/ha, scored visually after 3 weeks, 100% = plants have died, 0% = like control plants): 90%; pest or weed control at 20 g/ha (POLCO; dosage 20 g/ha): 80%; pest or weed control at 20 g/ha (MATIN [16]): 90%; pest or weed control at 80 g/ha (ABUTH [17]): 100%; pest or weed control at 20 g/ha (ABUTH [17]): 90%; pest or weed control at 5 g/ha (SETVI [18]; dosage 5 g/ha): 90%; pest or weed control at 20 g/ha (SETVI [18]): 90%; pest or weed control at 80 g/ha (LOLRI): 80%; pest or weed control at 20 g/ha (VIOTR [19]; dosage 20 g/ha): 90%; pest or weed control at 80 g/ha (VIOTR [19]): 100%
